In patent EP4299736A2, “HYDROLASES AND USES THEREOF” (Vilnius University, priority 2022, dated 2024):

Assays:
Assay type in all cases: biochemical
[1] = tested on: hydrolases SEQ ID NO: 1-41; experiment: Analysis of substrate spectrum of hydrolases (TLC, HPLC-MS, GC-MS); further: key: '+'- active; ' –' inactive towards derivative
Method: A hydrolytic activity of enzymes was analysed by thin-layer chromatography (TLC), high-performance liquid chromatography and a mass spectrometry (HPLC-MS) and Gas chromatography and a mass spectrometry (GC-MS) methods. Nucleosides, as substrates and hydrolysis reaction products, were tested by thin-layer chromatography (TLC) method and by a high-performance liquid chromatography - mass spectroscopy (HPLC-MS) method. Other reaction products were detected by Gas chromatography-Mass spectrometry (GC-MS) system. […] The conditions of the reactions are given below.
Hydrolysis products test by thin-layer chromatography (TLC) method. A hydrolytic activity was assayed in reaction mixture containing 45 mM potassium phosphate buffer, pH 7.5, 1 µl enzyme (0.1-4.6 µg/reaction) and 4 mM substrate. The total reaction mix volume was 20 µl. Reaction mixture were incubated at 30 °C temperature up to 3 h and at RT overnight. Thin-layer chromatography (TLC) was conducted on the Merck silica gel 60 F254 plates, using the chloroform and methanol (5:1) mixture of solvents.
High-performance liquid chromatography/mass spectrometry (HPLC-MS) analysis of hydrolysis reaction products. […] Mass scans were measured from m/z 10 up to m/z 500, at 350 °C interface temperature, 250 °C DL temperature, ±4,500 V interface voltage, neutral DL/Qarray, using N 2 as nebulizing and drying gas. Mass spectrometry data was acquired in both the positive and negative ionization mode. The data was analysed using the LabSolutions LCMS software. For HPLC-MS analysis, the reaction mixture consisted of 45 mM potassium phosphate buffer (pH 7.5), 2 mM substrate (from 50-100 mM stock in DMSO), and protein (-0.5-1 mg/ ml). Reaction mixture was incubated at 30 °C temperature up to 3 h and at RT overnight.
Gas chromatography-Mass spectrometry (GC-MS) analysis of hydrolysis reaction products. GC-MS analyses were performed with a Shimadzu GCMS-QP2010 Ultra Plus (Kyoto, Japan). […] Temperature program -50°C (1 min), 50°C →250 °C (25 °C/min), total run time - 15 min. The temperatures of injector, interface and ion source were 250°C.
For GC-MS analysis, the reaction mixture consisted of 45 mM potassium phosphate buffer (pH 7.5), 2.4 mM substrate (from 50-100 mM stock in DMSO), and protein (-0.5-1 mg/ ml). The total reaction mix volume was 1000 µl. The hydrolysis reaction products were extracted with ethyl acetate (3x 400 µl).

[2] = tested on: hydrolase Seq ID No: 3 (metagenomic hydrolase); experiment: Spectrophotometric assay of hydrolytic activity (kinetic parameters); details: potassium phosphate buffer, pH 7.5, 22 °C
Method: (§1) For the spectrophotometric assay, the reaction was started by adding an appropriate amount of protein to potassium phosphate buffer, pH 7.5 supplemented with 0.3, 0.15, 0.1, 0.075, 0.05, 0.0375, 0.025, 0.0125 mM N^4-benzoyl-2'-deoxycytidine, or 1, 0.8, 0.5, 0.4, 0.25, 0.2, 0.1, 0.05 mM 2'-deoxycytidine. Then, decreases in absorbance at either 310 for N^4-benzoyl-2'-deoxycytidine or 290 nm for 2'-deoxycytidine were recorded at 22 °C. Kinetic parameters (Table x) were calculated using Imfit-py 1.0.2 software fitting the experimental data to a simple Michaelis-Menten kinetics scheme. Table 5. Kinetic parameters of hydrolases. Substrate: BzdC - N4-benzoyl-2'-deoxycytidine; dC-2'-deoxycytidine.

[3] = target: hydrolase Seq ID No: 1 (metagenomic, wild-type hydrolase) (uncultured bacterium, UniProt A0ACD6BAS6); experiment: as above; details: potassium phosphate buffer, pH 7.5, 22 °C
Chain of hydrolase Seq ID No: 1 (metagenomic, wild-type hydrolase) (A0ACD6BAS6 entry or part of it): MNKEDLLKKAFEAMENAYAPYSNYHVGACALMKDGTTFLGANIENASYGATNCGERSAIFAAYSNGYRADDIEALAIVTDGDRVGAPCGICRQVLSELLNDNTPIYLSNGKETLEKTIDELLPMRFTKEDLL
Method: as §1

[4] = target: hydrolase variant Seq ID No: 15 (site-directed mutant) (uncultured bacterium, UniProt A0ACD6BAS6); experiment: as above; details: potassium phosphate buffer, pH 7.5, 22 °C, 310 nm (BzdC) or 290 nm (dC)
Chain of hydrolase variant Seq ID No: 15 (site-directed mutant) (A0ACD6BAS6 entry or part of it, change not shown): as the sequence (A0ACD6BAS6 entry or part of it) above
Excerpt: (§2) Mutations in the hydrolase's genes were introduced using methodology based on "Phusion™ Site-Directed Mutagenesis Kit" (Thermo Fisher Scientific). For specific mutagenesis, primer pairs meant to amplify the whole plasmid with the target protein gene, where one primer has miss-matched base pairs in the middle, were created (Fw/Rv): […]/[…] (SEQ ID NO:10); [formula] [formula] […]/[…] (SEQ ID NO:13); [formula] [formula] […]/[…] and […]/[…] (SEQ ID NO: 16, SEQ ID NO: 17, SEQ ID NO: 18); [formula] […]/[…] (SEQ ID NO: 21); [formula] […]/[…] (SEQ ID NO: 23); […]/[…] (SEQ ID NO: 24).
as §1

[5] = target: hydrolase variant Seq ID No:13 (site-directed mutant) (uncultured bacterium, UniProt A0ACD6BAS6, form not given/G85I); experiment: as above; details: potassium phosphate buffer, pH 7.5, 22 °C, 310 nm (BzdC) or 290 nm (dC)
Chain of hydrolase variant Seq ID No:13 (site-directed mutant) (A0ACD6BAS6 entry or part of it G85I, form open): as the sequence (A0ACD6BAS6 entry or part of it) above
Excerpt: as §2, §1

[6] = 310 nm (BzdC) or 290 nm (dC), unit not given
[7] = absorbance decrease at 310 nm (BzdC) or 290 nm (dC), Michaelis-Menten fit

| SMILES | Hydrolysis of S^4-alkyl uridine derivatives ([1]; enzyme SEQ ID No:1) | Hydrolysis of S^4-alkyl uridine derivatives ([1]; enzyme SEQ ID No:4) | Hydrolysis of S^4-alkyl uridine derivatives ([1]; enzyme SEQ ID No:35) | Hydrolysis of S^4-alkyl uridine derivatives ([1]; enzyme SEQ ID No:38) | Hydrolysis of S^4-alkyl uridine derivatives ([1]; enzyme SEQ ID No:3) | Hydrolysis of S^4-alkyl uridine derivatives ([1]; enzyme SEQ ID No:2) | Hydrolysis of S^4-alkyl uridine derivatives ([1]; enzyme SEQ ID No:9) | Hydrolysis of S^4-alkyl uridine derivatives ([1]; enzyme SEQ ID No:25) | Hydrolysis of S^4-alkyl uridine derivatives ([1]; enzyme SEQ ID No:28) | Hydrolysis of S^4-alkyl uridine derivatives ([1]; enzyme SEQ ID No:30) | Hydrolysis of S^4-alkyl uridine derivatives ([1]; enzyme SEQ ID No:34) | further results |
| --- | --- | --- | --- | --- | --- | --- | --- | --- | --- | --- | --- | --- |
| O=c1nc(Sc2ccccc2)c(F)cn1[C@@H]1O[C@H](CO)[C@@H](O)[C@H]1O [5F-4-S-phenyl-U] | + | + | + | + | – | – | – | – | – | – | – | – |
| CC(C)Sc1ccn([C@@H]2O[C@H](CO)[C@@H](O)[C@H]2O)c(=O)n1 [4-S-iso-propyl-U] | + | + | – | – | + | – | – | – | – | – | – | – |
| CCSc1nc(=O)n([C@@H]2O[C@H](CO)[C@@H](O)[C@H]2O)cc1F [5-F-4-S-ethyl-U] | + | + | + | + | + | + | + | + | + | + | + | Hydrolysis of S^4-alkyl uridine derivatives ([1]; enzyme SEQ ID No:6): +; Hydrolysis of S^4-alkyl uridine derivatives ([1]; enzyme SEQ ID No:27): +; Hydrolysis of S^4-alkyl uridine derivatives ([1]; enzyme SEQ ID No:32): +; Hydrolysis of S^4-alkyl uridine derivatives ([1]; enzyme SEQ ID No:36): +; Hydrolysis of S^4-alkyl uridine derivatives ([1]; enzyme SEQ ID No:37): + |
| Nc1ccn([C@H]2C[C@H](O)[C@@H](CO)O2)c(=O)n1 [dC, 2'-deoxycytidine] | – | – | – | – | – | – | – | – | – | – | – | kcat ([2]; 310 nm (BzdC) or 290 nm (dC)): (2.09 +/- 0.09) ×10^-1 s^-1; Vmax [2, 6]: (1.20 ± 0.05) × 10^-4; Km [2, 7]: 182 µM; kcat ([3]; 310 nm (BzdC) or 290 nm (dC)): (24.4 ± 1.71) × 10 ^-1 s^-1; Vmax [3, 6]: (2.67 ± 0.19) × 10^-4; Km [3, 7]: 195 µM; kcat [4]: (2.58 ± 0.09) × 10^-2 s^-1; Vmax ([4]; unit not given): (6.70 ± 0.24) × 10^-5; kcat [5]: (6.87 ± 0.80) × 10 ^-1 s^-1; Vmax ([5]; unit not given): (4.35 ± 0.51) × 10^-4 |
| O=c1nc(SCc2ccccc2)ccn1[C@@H]1O[C@H](CO)[C@@H](O)[C@H]1O [4-S-benzyl-U] | + | + | + | + | + | + | + | + | + | + | + | Hydrolysis of S^4-alkyl uridine derivatives ([1]; enzyme SEQ ID No:10): +; Hydrolysis of S^4-alkyl uridine derivatives ([1]; enzyme SEQ ID No:13): +; Hydrolysis of S^4-alkyl uridine derivatives ([1]; enzyme SEQ ID No:14): +; Hydrolysis of S^4-alkyl uridine derivatives ([1]; enzyme SEQ ID No:21): +; Hydrolysis of S^4-alkyl uridine derivatives ([1]; enzyme SEQ ID No:39): +; Hydrolysis of S^4-alkyl uridine derivatives ([1]; enzyme SEQ ID No:41): + |
